“And” between values parts separate entries of the source, which are not always exact repeats. Identical values can stand only once. Counter-ions that a name gives are not always drawn. Like-named read-outs stand apart in the source and are kept apart here.
Legend:
[1] = target: T1, human α4β2 nAChR (Homo sapiens, UniProt P17787+P43681); experiment: [3H]cytisine competition binding on membrane homogenates of SH-EP-hα4β2 clonal cells; set-up: expressed in transfected cells; details: mean ± SEM of four experiments
Experimental: First, we determined the half maximal inhibitory concentration (IC50) of the synthesized molecules for human α4β2 nAChR using [^3H]-cytisine ([^3H-Cyt]) as a radioligand. It is well known that [^3H-Cyt] binds to the agonist (orthosteric) site of α4β2 nACRs.
Figure 4 Effects of phenylpyrrolidine derivatives on binding of [^3H]cytisine to human α4β2 nAChRs. Data points represent the mean ± SEM of four experiments. Each experiment was carried out in triplicate. The radioligand concentration in all displacement studies was 1 nM. The concentration-inhibition data was analyzed non-linearly.
Membrane homogenates for [^3H]-Cyt binding studies were prepared from the SH-EP-h α4β2 clonal cell line, which express human α4β2 nAChRs. Cells were maintained in Dulbecco’s modified Eagle’s medium (Invitrogen, UK) supplemented with 5% fetal serum, 10% horse serum, 2 mM L-glutamine, 10 IU/mL penicillin, 10 μg/mL streptomycin, 2.5 μg/mL amphotericin-B, 0.25 mg/mL zeocin, and 0.13 mg/mL hygromycin.
Competition binding studies were performed on membrane homogenates prepared SH-EP-hα4β2 clonal cell line, using [^3H]cyt (PerkinElmer, UK), as previously described. Membrane homogenates were incubated at a final protein concentration of 30 to 50 µg per assay tube in a final volume of 250 µL of binding saline ([…]: 120 NaCl, 5 KCl, 1 MgCl2, 2.5 CaCl2, 50 Tris, pH 7.0) for 75 min at 4 °C with 1 nM [^3H]cyt. […] Bound and free fractions were separated by rapid filtration through Whatman GF/C filters presoaked in binding saline supplemented with 0.1% polyethyleneimine. Radioactivity was quantified by liquid scintillation spectrometry.

[2] = target: T1, human α4β2 nAChR; experiment: two-electrode voltage clamp on human α4β2 nAChR expressed in Xenopus laevis oocytes; type: cell-based; set-up: expressed in transfected cells; host or cells: Xenopus laevis oocytes (nuclear cDNA injection); details: for agonist profile at human α4β2 nAChR: in words; for Imax: maximal current normalized to response to 1 mM ACh, mean ± SEM; for Emax: read-out: maximal response (efficacy) as % of the ACh Imax
Experimental: The functional effects of our compounds were tested on α4β2 nAChR heterologously expressed in Xenopus laevis oocytes. Experiments were carried out by using the two-electrode voltage clamp procedure.
Figure 5 Interaction of phenylpyrrolidine derivatives with human α4β2 nicotinic receptors expressed in Xenopus laevis oocytes. Whole cell currents in response to agonist application were measured by a two-electrode voltage clamp. Concentration-response curves show activation of whole cell currents by compounds 1, 2, 3, and 4. Each point represents data from four to five cells, normalized to the amplitude of the maximal responses of ACh, which was stimulated by 1 mM of ACh. The data are fitted to a single component Hill curve.
The α4β2 nAChRs (wild type) were expressed heterologously in defolliculated oocytes from Xenopus laevis, which were dissected from adult female X. laevis frogs (Nasco, Fort Atkinson, WI, USA). The Oxford Brookes University Animal Research Committee, in accordance with the guidelines of the 1986 Scientific Procedures Act of the United Kingdom, approved the care and use of X. laevis frogs in this study. A mixture of 1:1 of human of α4 and β2 subunits for α4β2 subtype cDNAs were injected into the nuclei of oocytes in a volume of 23 nL/oocyte by using a Nanoject Automatic Oocyte Injector (Drummond Scientific, Broomall, PA, USA). After injection, oocytes were incubated at 17 °C in OPS (NaCl, KCl, CaCl2, MgCl2, pH 7.4) supplemented with a mixture of penicillin-streptomycin-anphotericin-B (10,000 IU/mL penicillin, 10 mg/mL streptomycin, and 25 µg amphotericin-B/mL) and amikacin (100 µg/mL). Experiments were performed on oocytes 2 to 6 days after injection.
Electrophysiological recording from oocyte post-injection was made at room temperature using a standard two electrode voltage clamp technique with an automatic multichannel system (HiClamp, Multichannel Systems, Reutlingen, Germany). Oocytes were impaled by two borosilicate capillary glass (Harvard Instrument: 150 TF GC) microelectrodes filled with 3 M KCl (0.3–2.0 MΩ) and voltage-clamped at −60 mV. During recording, oocytes were perfused with OPS (oocytes perfusion solution), as described in the manual of HiClamp. Agonist responses were normalized to the amplitude of the responses induced by 1 mM ACh, which is the maximal ACh concentration at α4β2 nAChRs. Between each successive ACh or compound application, the cell was perfused with OPS solution for 3 min to allow drug clearance and prevent receptor desensitization.

[3] = target: T1, human α4β2 nAChR; details: nicotine, included for comparison, no SEM, not in Figure 5; cited from earlier work
[4] = displacement of 1 nM [3H]cytisine, read-out: α4β2 IC50
[5] = Xenopus laevis oocytes, -60 mV, mean ± SEM of four to five experiments, read-out: α4β2 EC50
[6] = relative to 1 mM ACh, Xenopus laevis oocytes

| Compound | IC50 [1, 4] | EC50 [2, 5] | agonist profile at human α4β2 nAChR ([2]; Xenopus laevis oocytes) | Imax ([2]; Xenopus laevis oocytes) | Emax [2, 6] | also measured |
| --- | --- | --- | --- | --- | --- | --- |
| CN1CCC[C@H]1COc1cccc(N)c1 [Compound 2, (S)-1-methyl-2-(3′-aminophenoxymethyl)pyrrolidine Ether] | 13 nM and 13.8 nM | 10800 ± 700 nM | full agonist | 1.00 ± 0.01 | 100% | fold more potent than compound 1 (EC50) ([2]; Xenopus laevis oocytes, ratio of EC50 values): about seven-fold |
| CN1CCC[C@H]1COc1cccc(N)c1 (as salt: hydrochloride) [Compound 2, (S)-1-methyl-2-(3′-aminophenoxymethyl)pyrrolidine Ether] |  |  |  |  |  | melting point: 198 to 200 °C |
| CN1CCC[C@H]1COc1ccccc1 [Compound 1, (S)-1-methyl-2-(phenoxymethyl)pyrrolidine Ether] | 204 ± 6 nM | 68800 ± 1300 nM | partial agonist |  |  |  |
| CN1CCC[C@H]1COc1cccc(Br)c1 [Compound 4, (S)-1-methyl-2-(3′-bromophenoxymethyl)pyrrolidine Ether] |  |  | partial agonist | 0.13 ± 0.01 |  | IC50 ([1]; α4β2 IC50, displacement of 1 nM [3H]cytisine): 188 ± 7 nM; EC50 [2]: 56700 ± 1700 nM; Emax [2]: 13% |
| CN1CCC[C@H]1COc1cccc(Cl)c1 [Compound 3, (S)-1-methyl-2-(3′-Chlorophenoxymethyl)pyrrolidine Ether] | 221 ± 10 nM | 63300 ± 2100 nM | partial agonist | 0.29 ± 0.01 | 29% |  |
| CN1CCC[C@H]1c1cccnc1 [Nicotine] |  |  |  |  |  | Imax [3]: 1.00 |

From article PMC6695845 (Molecules, 2019)
